Laboratory results taken from US12180207B2 (ARRAY BIOPHARMA INC., priority 2018, dated 2024).

Experiments:
[1] = target: FGFR3 (SEQ ID NO: 5, amino acids 449-759) (Homo sapiens (Human), UniProt P22607); assay: LC/MS FGFR3 kobs assay (covalent protein modification); type: binding; conditions: 500 nM FGFR3, 3 μM compound
Procedure, shortened: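 The observed rate constant kobs comes from an exponential decay fit of percent unmodified kinase over time. Covalent modification was quantified by Q-TOF LC/MS of formic acid-quenched samples, normalized against DMSO controls.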

[2] = target: recombinant human FGFR1 catalytic domain (amino acids 308-731) (Homo sapiens (Human), UniProt P11362); assay: FGFR1 enzyme activity assay (LanthaScreen TR-FRET); type: biochemical; conditions: 20 min incubation at 22° C., average of multiple determinations if made, read-out: FGFR1 Enz FRET IC50
Procedure, shortened: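 His-tagged FGFR1 kinase domain with 100 nM Alexa Fluor 647-poly-GT peptide and ATP in pH 7.5 HEPES/MgCl2 buffer with 2% DMSO, 20 min at 22 °C. Quenched with EDTA plus 2 nM Eu-PY20 antibody and read after 60 min. IC50 comes from a 4-parameter fit of percent of control.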

[3] = target: FGFR1 (SEQ ID NO: 1, amino acids 458-765) (Homo sapiens (Human), UniProt P11362); assay: LC/MS FGFR1 kobs assay (covalent protein modification); type: binding; conditions: 500 nM FGFR1, 3 μM compound
Procedure, shortened: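 Covalent labeling of FGFR1 kinase domain (aa 458-765) tracked over time by intact-protein LC/MS after formic acid quench. kobs derived by fitting DMSO-normalized percent unmodified FGFR1 to an exponential decay model.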

[4] = target: recombinant human FGFR2 cytoplasmic domain (amino acids 403-822) (Homo sapiens (Human), UniProt P21802); assay: FGFR2 enzyme activity assay (LanthaScreen TR-FRET); type: biochemical; conditions: 15 μM ATP, 20 min incubation at 22° C., average of multiple determinations if made, read-out: FGFR2 Enz FRET IC50
Procedure, shortened: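 His-tagged FGFR2 cytoplasmic domain ([…]) with 100 nM Alexa Fluor 647-poly-GT peptide and 15 μM ATP in HEPES/MgCl2/Triton buffer, pH 7.5, 2% DMSO, 20 min at 22 °C. EDTA-quenched, Eu-PY20 antibody added, TR-FRET read after 60 min.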

[5] = target: recombinant human FGFR3 (amino acids R397-T806) (Homo sapiens (Human), UniProt P22607); assay: FGFR3 enzyme activity assay (LanthaScreen TR-FRET); type: biochemical; conditions: 25 μM ATP, 10 min incubation at 22° C., average of multiple determinations if made, read-out: FGFR3 Enz FRET IC50
Procedure, shortened: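 GST-HIS6-tagged human FGFR3 (R397-T806) was reacted with 100 nM Alexa Fluor 647-Poly-GT substrate and 25 μM ATP plus compound in HEPES/MgCl2/Triton buffer, pH 7.5, 2% DMSO, for 10 min at 22 °C.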

FGFR3 (SEQ ID NO: 5, amino acids 449-759), sequence (P22607 449-759): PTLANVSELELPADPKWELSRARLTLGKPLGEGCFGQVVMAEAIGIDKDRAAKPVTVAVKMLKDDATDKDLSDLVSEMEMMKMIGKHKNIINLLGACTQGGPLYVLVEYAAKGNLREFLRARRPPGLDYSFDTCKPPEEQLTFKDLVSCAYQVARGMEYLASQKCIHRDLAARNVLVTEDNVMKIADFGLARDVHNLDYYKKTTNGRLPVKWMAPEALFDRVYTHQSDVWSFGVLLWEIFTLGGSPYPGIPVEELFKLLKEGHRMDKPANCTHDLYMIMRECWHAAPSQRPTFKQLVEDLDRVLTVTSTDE
recombinant human FGFR3 (amino acids R397-T806), sequence (P22607 397-806): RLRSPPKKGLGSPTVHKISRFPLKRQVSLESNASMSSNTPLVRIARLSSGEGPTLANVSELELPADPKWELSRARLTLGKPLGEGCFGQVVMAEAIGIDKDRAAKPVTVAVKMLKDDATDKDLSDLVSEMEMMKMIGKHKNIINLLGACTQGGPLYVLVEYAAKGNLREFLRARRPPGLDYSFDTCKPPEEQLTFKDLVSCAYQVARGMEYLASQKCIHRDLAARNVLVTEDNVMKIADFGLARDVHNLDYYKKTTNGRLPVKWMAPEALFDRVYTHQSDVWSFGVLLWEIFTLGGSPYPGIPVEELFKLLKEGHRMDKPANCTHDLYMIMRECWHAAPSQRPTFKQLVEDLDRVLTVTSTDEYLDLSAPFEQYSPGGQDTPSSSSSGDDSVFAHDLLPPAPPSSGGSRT
recombinant human FGFR1 catalytic domain (amino acids 308-731), sequence (P11362 other isoform, or with tags, fused parts or gaps): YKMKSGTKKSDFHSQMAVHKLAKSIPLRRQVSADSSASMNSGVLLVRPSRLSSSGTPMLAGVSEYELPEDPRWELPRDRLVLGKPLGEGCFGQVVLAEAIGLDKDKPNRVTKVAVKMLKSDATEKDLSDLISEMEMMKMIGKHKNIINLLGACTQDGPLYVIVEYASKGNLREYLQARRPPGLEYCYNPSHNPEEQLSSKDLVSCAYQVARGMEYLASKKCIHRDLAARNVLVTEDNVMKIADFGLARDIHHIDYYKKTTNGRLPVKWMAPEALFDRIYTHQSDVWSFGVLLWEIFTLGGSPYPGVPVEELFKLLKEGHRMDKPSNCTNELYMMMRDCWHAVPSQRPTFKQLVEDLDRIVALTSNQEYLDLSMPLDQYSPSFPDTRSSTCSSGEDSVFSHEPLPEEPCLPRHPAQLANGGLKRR
FGFR1 (SEQ ID NO: 1, amino acids 458-765), sequence (P11362 458-765): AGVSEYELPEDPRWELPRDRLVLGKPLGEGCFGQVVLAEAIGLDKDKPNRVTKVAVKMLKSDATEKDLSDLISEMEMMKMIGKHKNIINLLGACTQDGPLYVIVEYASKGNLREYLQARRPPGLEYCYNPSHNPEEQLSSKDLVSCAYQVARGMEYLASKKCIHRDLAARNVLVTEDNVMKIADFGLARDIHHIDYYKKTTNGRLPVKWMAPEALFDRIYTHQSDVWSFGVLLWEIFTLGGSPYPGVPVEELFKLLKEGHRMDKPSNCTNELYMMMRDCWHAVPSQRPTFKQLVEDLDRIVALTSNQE
recombinant human FGFR2 cytoplasmic domain (amino acids 403-822), sequence (P21802 402-821): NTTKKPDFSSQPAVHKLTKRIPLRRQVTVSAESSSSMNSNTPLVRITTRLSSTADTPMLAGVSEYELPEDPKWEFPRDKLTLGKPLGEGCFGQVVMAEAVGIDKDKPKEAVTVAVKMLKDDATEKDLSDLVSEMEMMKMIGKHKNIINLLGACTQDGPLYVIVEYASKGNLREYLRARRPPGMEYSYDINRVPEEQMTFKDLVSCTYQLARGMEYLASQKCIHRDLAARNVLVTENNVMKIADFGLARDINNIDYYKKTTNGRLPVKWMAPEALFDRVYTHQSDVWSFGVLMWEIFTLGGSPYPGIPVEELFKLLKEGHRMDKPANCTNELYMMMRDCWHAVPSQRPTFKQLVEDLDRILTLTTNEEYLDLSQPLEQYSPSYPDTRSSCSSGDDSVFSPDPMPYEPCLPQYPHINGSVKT

| FGFR3 Enz kobs [1] | IC50 [2] | FGFR1 Enz kobs [3] | IC50 [4] | IC50 [5] | SMILES |
| --- | --- | --- | --- | --- | --- |
| 0.01468 min⁻¹ | 165 nM | 0.00243 min⁻¹ | 56 nM | 21 nM | C=CC(=O)N1CC(C)(CN2CCC(n3ncc(-c4cc(OC)c5c(C#N)cnn5c4)c3C)CC2)C1 [Example 90, 6-(1-(1-((1-acryloyl-3-methylazetidin-3-yl)methyl)piperidin-4-yl)-5-methyl-1H-pyrazol-4-yl)-4-methoxypyrazolo[1,5-a]pyridine-3-carbonitrile] |
| 0.02116 min⁻¹ | 617 nM | 0.00258 min⁻¹ | 96 nM | 11 nM | C=CC(=O)N1CC(C)(C(=O)N2CCC(n3ncc(-c4cc(OC)c5c(C#N)cnn5c4)c3C)CC2)C1 [Example 86, 6-(1-(1-(1-acryloyl-3-methylazetidine-3-carbonyl)piperidin-4-yl)-5-methyl-1H-pyrazol-4-yl)-4-methoxypyrazolo[1,5-a]pyridine-3-carbonitrile] |
| 0.0205 min⁻¹ | 19 nM | 0.00277 min⁻¹ | 5 nM | 9 nM | C=CC(=O)Nc1ccc(C(=O)N2CC[C@@H](n3cc(-c4cc(OC)c5c(C#N)cnn5c4)cn3)C2)cc1 [Example 55, (R)-N-(4-(3-(4-(3-cyano-4-methoxypyrazolo[1,5-a]pyridin-6-yl)-1H-pyrazol-1-yl)pyrrolidine-1-carbonyl)phenyl)acrylamide] |
